# Key:
# Histone deacetylase HD1B = Histone deacetylase HD1B (Zea mays, UniProt Q9ZTP8); assay: Inhibition of maize histone deacetylase 1B
# [1] = Inhibition of maize histone deacetylase 1A; set-up: species or system Zea mays
# Zea mays = assay: Selectivity for IC50 of maize histone deacetylase 1A over IC50 of maize histone deacetylase 1B
# Histone deacetylase HD1B, sequence (Q9ZTP8 whole entry): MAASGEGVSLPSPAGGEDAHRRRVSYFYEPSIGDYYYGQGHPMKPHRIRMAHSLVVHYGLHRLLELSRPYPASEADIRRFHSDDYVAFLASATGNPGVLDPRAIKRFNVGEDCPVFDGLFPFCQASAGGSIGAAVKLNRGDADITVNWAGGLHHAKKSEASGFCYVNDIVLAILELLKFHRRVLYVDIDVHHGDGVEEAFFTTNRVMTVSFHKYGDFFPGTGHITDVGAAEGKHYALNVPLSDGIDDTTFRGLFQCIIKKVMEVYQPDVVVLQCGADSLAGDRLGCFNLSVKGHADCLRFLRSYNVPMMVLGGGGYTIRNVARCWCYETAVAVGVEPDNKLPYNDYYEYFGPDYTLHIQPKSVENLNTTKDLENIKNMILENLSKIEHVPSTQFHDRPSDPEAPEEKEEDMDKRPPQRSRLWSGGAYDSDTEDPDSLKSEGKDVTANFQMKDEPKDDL
IC50 (Histone deacetylase HD1B; read-out: IC50) [nM],IC50 [1] [nM],Ratio IC50 (Zea mays),pIC50 [1],IC50 (Histone deacetylase HD1B; read-out: pIC50 (converted)) [nM],Compound
21300,5900,3.6,5.229,,Cn1cc(/C=C/C(=O)c2ccc(Cl)c(Cl)c2)cc1/C=C/C(=O)NO
16600,800,20.8,6.097,800,Cn1cc(/C=C/C(=O)c2cc(F)ccc2F)cc1/C=C/C(=O)NO
31400,440,71.4,,,Cn1cc(/C=C/C(=O)c2cccc(Cl)c2)cc1/C=C/C(=O)NO
4800,500,9.6,,,Cc1ccc(C(=O)/C=C/c2cc(/C=C/C(=O)NO)n(C)c2)cc1
1400,500,2.8,6.733,621,Cn1cc(/C=C/C(=O)c2ccc(F)c(Cl)c2)cc1/C=C/C(=O)NO
17000,2800,6.1,5.523,,Cn1cc(/C=C/C(=O)c2ccc(Cl)cc2Cl)cc1/C=C/C(=O)NO
38800,220,176,,,Cn1cc(/C=C/C(=O)c2cccc(F)c2)cc1/C=C/C(=O)NO
3400,100,34,,,Cn1cc(/C=C/C(=O)c2ccccc2F)cc1/C=C/C(=O)NO
13500,2200,6.1,5.658,,Cn1cc(/C=C/C(=O)c2ccc(F)c(F)c2)cc1/C=C/C(=O)NO
6400,2100,3,,,Cn1cc(/C=C/C(=O)c2ccc3c(c2)CCO3)cc1/C=C/C(=O)NO
29400,18600,,,,Cn1cc(/C=C/C(=O)c2ccc(Cl)cc2)cc1/C=C/C(=O)NO
600,390,1.5,,,COc1cccc(C(=O)/C=C/c2cc(/C=C/C(=O)NO)n(C)c2)c1
24900,15700,1.6,,,Cn1cc(/C=C/C(=O)c2ccc(F)cc2)cc1/C=C/C(=O)NO
23500,,11.2,5.678,,Cn1cc(/C=C/C(=O)c2cc(F)cc(F)c2)cc1/C=C/C(=O)NO
807,167,4.8,5.553,17000,Cn1cc(/C=C/C(=O)c2c(F)cccc2F)cc1/C=C/C(=O)NO
2500,170,14.7,,,Cc1cccc(C(=O)/C=C/c2cc(/C=C/C(=O)NO)n(C)c2)c1
24300,20300,1.2,,,Cn1cc(/C=C/C(=O)c2ccc(Br)cc2)cc1/C=C/C(=O)NO
159000,9300,17.1,5.032,,Cn1cc(/C=C/C(=O)c2cccc(C(F)(F)F)c2)cc1/C=C/C(=O)NO
480,1600,,,,Cn1cc(/C=C/C(=O)c2cccc(Br)c2)cc1/C=C/C(=O)NO

# More lines, now with the values behind:
Compound,IC50 (Histone deacetylase HD1B; read-out: IC50) [nM],IC50 [1] [nM],Ratio IC50 (Zea mays),pIC50 [1],IC50 (Histone deacetylase HD1B; read-out: pIC50 (converted)) [nM]
Cn1cc(/C=C/C(=O)c2ccc(-c3ccccc3)cc2)cc1/C=C/C(=O)NO,31800,2200,14.4,,
Cn1cc(/C=C/C(=O)c2ccc3ccccc3c2)cc1/C=C/C(=O)NO,1800,40,45,,
Cn1cc(/C=C/C(=O)c2ccccc2Br)cc1/C=C/C(=O)NO,180,210,,,
Cn1cc(/C=C/C(=O)c2ccco2)cc1/C=C/C(=O)NO,19700,1200,16.4,,
Cn1cc(/C=C/C(=O)c2cccc(Cl)c2Cl)cc1/C=C/C(=O)NO,17200,6800,2.5,6.243,
Cn1cc(/C=C/C(=O)c2ccccc2)cc1/C=C/C(=O)NO,260,190,,,
Cc1ccccc1C(=O)/C=C/c1cc(/C=C/C(=O)NO)n(C)c1,390,60,6.5,,
Cn1cc(/C=C2\CCc3ccccc3C2=O)cc1/C=C/C(=O)NO,59000,3400,17.3,6.777,807
C/C(=C\c1cc(/C=C/C(=O)NO)n(C)c1)C(=O)c1ccccc1,570,780,,,
Cn1cc(/C=C2\CCCc3ccccc3C2=O)cc1/C=C/C(=O)NO,510,196,2.6,6.301,1400
Cn1cc(/C=C/C(=O)c2ccccc2Cl)cc1/C=C/C(=O)NO,1600,50,32,,
Cn1cc(/C=C/C(=O)c2ccc3c(c2)OCCO3)cc1/C=C/C(=O)NO,621,185,3.4,6.708,
Cn1cc(/C=C/C(=O)c2cccs2)cc1/C=C/C(=O)NO,25800,16300,1.6,,
CC(/C=C/C(=O)NO)=C\[C@@H](C)C(=O)c1ccc(N(C)C)cc1 [TRICHOSTATIN],,0.8,,,
COc1ccccc1C(=O)/C=C/c1cc(/C=C/C(=O)NO)n(C)c1,170,160,,,
COc1ccc(C(=O)/C=C/c2cc(/C=C/C(=O)NO)n(C)c2)cc1,800,790,,,
Cn1cc(/C=C/C(=O)c2cccc(OC(F)(F)F)c2)cc1/C=C/C(=O)NO,298000,90000,3.3,4.046,
Cn1cc(/C=C/C(=O)c2cccc3ccccc23)cc1/C=C/C(=O)NO,330,10,33,,
Cn1cc(/C=C/C(=O)c2ccsc2)cc1/C=C/C(=O)NO,22600,13800,1.6,,
Cn1cc(/C=C/C(=O)c2cc3ccccc3o2)cc1/C=C/C(=O)NO,12000,3000,4,5.469,59000
CC/C(=C\c1cc(/C=C/C(=O)NO)n(C)c1)C(=O)c1ccccc1,4500,220,20.4,,

# — ChEMBL document CHEMBL1149816, “Class II-selective histone deacetylase inhibitors. Part 2: alignment-independent GRIND 3-D QSAR, homology and docking studies” (Eur J Med Chem, 2008)
